Measurements: ChEMBL document CHEMBL1649431, “Molecular mechanisms of macrolide resistance in clinical isolates of Mycoplasma pneumoniae from China” (2009)
In brackets after ≈: the same amount, converted by molar mass.

Columns and labels:
[1] = tested on: Mycoplasmoides pneumoniae; assay: Antimicrobial activity against Mycoplasma pneumoniae FH by microdilution method; format: functional
[2] = tested on: Mycoplasmoides pneumoniae; assay: Antimicrobial activity against Mycoplasma pneumoniae clinical isolate harboring point mutations in 23S rRNA at positions 2063 and 2064 isolated from human respiratory tract by microdilution method; format: functional

SMILES	MIC [1]	MIC [2]	MIC50 [2]	MIC90 [2]
CC[C@H]1OC(=O)[C@H](C)[C@@H](O[C@H]2C[C@@](C)(OC)[C@@H](O)[C@H](C)O2)[C@H](C)[C@@H](O[C@@H]2O[C@H](C)C[C@H](N(C)C)[C@H]2O)[C@](C)(O)C[C@@H](C)CN(C)[C@H](C)[C@@H](O)[C@]1(C)O [AZITHROMYCIN]	0.001 µg/mL (≈ 0.00134 µM)	0.001 µg/mL (≈ 0.00134 µM)	128 µg/mL (≈ 171 µM)	256 µg/mL (≈ 342 µM)
CC[C@H]1OC(=O)[C@H](C)[C@@H](O[C@H]2C[C@@](C)(OC)[C@@H](O)[C@H](C)O2)[C@H](C)[C@@H](O[C@@H]2O[C@H](C)C[C@H](N(C)C)[C@H]2O)[C@](C)(O)C[C@@H](C)C(=O)[C@H](C)[C@@H](O)[C@]1(C)O [ERYTHROMYCIN]	0.01 µg/mL (≈ 0.0136 µM)	0.01 µg/mL (≈ 0.0136 µM)	128 µg/mL (≈ 174 µM)	512 µg/mL (≈ 698 µM)
CO[C@@H]1[C@@H](O[C@@H]2O[C@H](C)[C@@H](O[C@H]3C[C@@](C)(O)[C@@H](OC(=O)CC(C)C)[C@H](C)O3)[C@H](N(C)C)[C@H]2O)[C@@H](CC=O)C[C@@H](C)[C@@H](O)/C=C/C=C/C[C@@H](C)OC(=O)C[C@H]1OC(C)=O [JOSAMYCIN]	0.1 µg/mL (≈ 0.121 µM)	0.01 µg/mL (≈ 0.0121 µM)	32 µg/mL (≈ 38.6 µM)	64 µg/mL (≈ 77.3 µM)
